19 molecules from patent publication US8455497B2, “Inhibitors of aspartyl protease” (Vertex Pharmaceuticals Incorporated, priority 1999, dated 2013) can be followed below.

Where two headings read alike, the source gives them in different places.

For test [1], the system named is D545701-14 multi protease inhibitor resistant virus. Briefly: Anti-viral activity against resistant virus D545701-14 in MT4 cells. In kind it is cell-based, HIV-1.
For test [2], the system named is HIV-1 (strain IIIB). Briefly: Antiviral activity assay in MT4 cells (propidium iodide based). In kind it is cell-based. The note with it: Human immunodeficiency virus 1, IIIB; wild type HIV-1 virus, MT4 cells; read-out: Wildtype virus - IC50. The method in brief:
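MT4 cells infected with HIV-1 IIIB (MOI 100×TCID50, 1 hr, 37°C), diluted 6-fold into wells with serially diluted compound, incubated 5 days. Cells lysed with Nonidet-40; DNA content per well estimated by propidium iodide staining as the viability read-out, with mock-infected controls.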

Test [3] concerns EP13 multi protease inhibitor resistant virus. Briefly: Anti-viral activity against resistant virus EP13 in MT4 cells. In kind it is cell-based, HIV-1. The method in brief:
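MT4 cells infected for 1 h at 37 °C, MOI 100×TCID50, then diluted 6-fold onto pre-diluted compound and cultured 5 days (5% CO2). Viable-cell DNA content estimated by propidium iodide. EP13 carries protease mutations M46I, L63P, A71V, V82F/L, I84V, no RT mutations.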

[4] abbreviates: Human immunodeficiency virus 1, MT4, read-out: D545701-14 mutant - IC50, D545701-14 multi protease inhibitor resistant virus, MT4 cells.
Setting [5] is: Human immunodeficiency virus 1, MT4, read-out: EP13 mutant IC50, EP13 multi protease inhibitor resistant virus, MT4 cells.
The mark [6] stands for this setting: Human immunodeficiency virus 1, MT4, read-out: D545701-14 mutant - IC50.
Where [7] appears, read: Human immunodeficiency virus 1, MT4, read-out: EP13 mutant IC50.

Consider `COCCNCCCOc1ccc(C[C@H](NC(=O)O[C@H]2CO[C@H]3OCC[C@H]32)[C@H](O)CN(CC(C)C)S(=O)(=O)c2ccc3c(c2)OCO3)cc1` [Compound 283, (3R,3aS,6aR)-hexahydrofuro[2,3-b]furan-3-yl (1S,2R)-3-[(1,3-benzodioxol-5-ylsulfonyl)(isobutyl)amino]-2-hydroxy-1-(4-{3-[(2-methoxyethyl)amino]propoxy}benzyl) propylcarbamate], for which the values for the IC50 in test [1] (setting [4]), in test [2] and in test [3] (setting [5]) were 0.01 to 0.1 µM, 0.01 to 0.1 µM and 0.001 to 0.01 µM, respectively.
Regarding `CC(C)CN(C[C@@H](O)[C@H](Cc1ccc(OCCCn2cccn2)cc1)NC(=O)O[C@H]1CO[C@H]2OCC[C@H]21)S(=O)(=O)c1ccc2c(c1)OCO2` [Compound 284, (3R,3aS,6aR)-hexahydrofuro[2,3-b]furan-3-yl (1S,2R)-3-[(1,3-benzodioxol-5-ylsulfonyl)(isobutyl)amino]-2-hydroxy-1-{4-[3-(1H-pyrazol-1-yl)propoxy]benzyl}propylcarbamate], the IC50 in test [1] (setting [4]), in test [2] and in test [3] (setting [5]) was 0.001 to 0.01 µM each time.
Consider `CCCCNC(=O)CCCOc1ccc(C[C@H](NC(=O)O[C@H]2CO[C@H]3OCC[C@H]32)[C@H](O)CN(CC(C)C)S(=O)(=O)c2ccc3c(c2)OCO3)cc1` [Compound 288, (3R,3aS,6aR)-hexahydrofuro[2,3-b]furan-3-yl (1S,2R)-3-[(1,3-benzodioxol-5-ylsulfonyl)(isobutyl)amino]-1-{4-[4-(butylamino)-4-oxobutoxy]benzyl}-2-hydroxypropylcarbamate], for which the IC50 in test [1] (setting [4]), in test [2] and in test [3] (setting [5]) was 0.001 to 0.01 µM each time.
With `CC(C)CN(C[C@@H](O)[C@H](Cc1ccc(OCc2cccc(C#N)c2)cc1)NC(=O)O[C@H]1CO[C@H]2OCC[C@H]21)S(=O)(=O)c1cccc(N)c1` [Compound 289], the IC50 in test [1] (setting [4]), in test [2] and in test [3] (setting [5]) was 0.001 to 0.01 µM in each case.
In the case of `CC(C)CN(C[C@@H](O)[C@H](Cc1ccc(OCCCCN)cc1)NC(=O)O[C@H]1CO[C@H]2OCC[C@H]21)S(=O)(=O)c1cccc(N)c1` [Compound 292], the half-maximal inhibitory concentration (IC50) in test [1] (setting [4]), in test [2] and in test [3] (setting [5]) was 0.01 to 0.1 µM each time.
As for `CC(C)CN(C[C@@H](O)[C@H](Cc1ccc(OCc2ccccn2)cc1)NC(=O)O[C@H]1CO[C@H]2OCCC21)S(=O)(=O)c1cccc(N)c1` (stereo partly drawn) [Compound 293], the IC50 in test [1] (setting [4]), in test [2] and in test [3] (setting [5]) was 0.001 to 0.01 µM each time.
Turning to `CC(=O)Oc1ccc(S(=O)(=O)N(CC(C)C)C[C@@H](O)[C@H](Cc2ccc(OCc3ccccn3)cc2)NC(=O)O[C@H]2COC3OCC[C@H]32)cc1C` (stereo partly drawn) [Compound 294], the IC50 in test [1] (setting [4]), in test [2] and in test [3] (setting [5]) was 0.001 to 0.01 µM each time.
Regarding `Cc1cc(S(=O)(=O)N(CC(C)C)C[C@@H](O)[C@H](Cc2ccc(OCc3ccccn3)cc2)NC(=O)O[C@H]2CO[C@H]3OCC[C@H]32)ccc1O` [Compound 295], the IC50 in test [1] (setting [4]), in test [2] and in test [3] (setting [5]) was 0.001 to 0.01 µM each time.
For `CC(C)CN(C[C@@H](O)[C@H](Cc1ccc(OCc2ccccn2)cc1)NC(=O)O[C@@H]1CO[C@H]2OCC[C@H]21)S(=O)(=O)c1ccc(N)cc1` [Compound 299, (3S,3aS,6aR)-hexahydrofuro[2,3-b]furan-3-yl (1S,2R)-3-[[(4-aminophenyl)sulfonyl]-(isobutyl)amino]-2-hydroxy-1-[4-(2-pyridinylmethoxy)benzyl]propylcarbamate], the IC50 in test [1] (setting [4]), in test [2] and in test [3] (setting [5]) was 0.001 to 0.01 µM each time.
In the case of `Cc1nc(COc2ccc(C[C@H](NC(=O)O[C@@H]3CO[C@H]4OCC[C@H]43)[C@H](O)CN(CC(C)C)S(=O)(=O)c3ccc(N)cc3)cc2)cs1` [Compound 300, (3S,3aS,6aR)-hexahydrofuro[2,3-b]furan-3-yl (1S,2R)-3-[[(4-aminophenyl)sulfonyl]-(isobutyl)amino]-2-hydroxy-1-{4-[(2-methyl-1,3-thiazol-4-yl)methoxy]benzyl}propylcarbamate], the IC50 in test [1] (setting [4]), in test [2] and in test [3] (setting [5]) was 0.001 to 0.01 µM in each case.
Turning to `CC(C)CN(C[C@@H](O)[C@H](Cc1ccc(OCc2cccc(C#N)c2)cc1)NC(=O)O[C@@H]1CO[C@H]2OCC[C@H]21)S(=O)(=O)c1ccc(N)cc1` [Compound 301, (3S,3aS,6aR)-hexahydrofuro[2,3-b]furan-3-yl (1S,2R)-3-[[(4-aminophenyl)sulfonyl](isobutyl)amino]-1-{4-[(3-cyanobenzyl)oxy]benzyl}-2-hydroxypropylcarbamate], the IC50 in test [1] (setting [4]), in test [2] and in test [3] (setting [5]) was 0.001 to 0.01 µM each time.
As to `COC(=O)CCCOc1ccc(C[C@H](NC(=O)OC2CO[C@H]3OCCC23)[C@H](O)CN(CC(C)C)S(=O)(=O)c2ccc3c(c2)OCO3)cc1` (stereo partly drawn) [Compound 303, Methyl 4-(4-{(2S,3R)-2-({[3R,3aS,6aR)-hexahydrofuro[2,3-b]furan-3-yloxy]carbonyl}amino)-4-[(1,3-benzodioxol-5-ylsulfonyl)(isobutyl)amino]-3-hydroxybutyl}phenoxy) butanoate], the IC50 in test [1] (setting [4]), in test [2] and in test [3] (setting [5]) was 0.01 to 0.1 µM in each case.
As for `CC(C)CN(C[C@@H](O)[C@H](Cc1ccc(OCC(F)(F)F)cc1)NC(=O)O[C@H]1CO[C@H]2OCC[C@H]21)S(=O)(=O)c1ccc2c(c1)OCO2` [Compound 304, (3R,3aS,6aR)-hexahydrofuro[2,3-b]furan-3-yl (1S,2R)-3-[(1,3-benzodioxol-5-ylsulfonyl)(isobutyl)amino]-2-hydroxy-1-[4-(2,2,2-trifluoroethoxy)benzyl]propylcarbamate], the IC50 in test [1] (setting [4]), in test [2] and in test [3] (setting [5]) was 0.001 to 0.01 µM in each case.
As to `CC(C)(CCCC#N)CN(C[C@@H](O)[C@H](Cc1ccc(OCc2ccccc2)cc1)NC(=O)O[C@H]1CO[C@H]2OCC[C@H]21)S(=O)(=O)c1ccc2c(c1)OCO2` [Compound 305, (3R,3aS,6aR)-Hexahydrofuro[2,3-b]furan-3-yl (1S,2R)-3-[(1,3-benzodioxol-5-ylsulfonyl)(5-cyano-2,2-dimethylpentyl)amino]-1-[4-(benzyloxy)benzyl]-2-hydroxypropylcarbamate], the IC50 in test [1] (setting [4]), in test [2] and in test [3] (setting [5]) was 0.001 to 0.01 µM each time.
`CC(C)CN(C[C@@H](O)[C@@H](N)Cc1ccc(OCc2ccccc2)cc1)S(=O)(=O)c1ccc2c(c1)OCO2` [Compound 308, N-{(2R,3S)-3-Amino-4-[4-(benzyloxy)phenyl]-2-hydroxybutyl}-N-isobutyl-1,3-benzodioxole-5-sulfonamide]: the IC50 in test [1] (setting [4]) was in the range of 0.001 to 0.01 µM; in test [2], 0.01 to 0.1 µM; in test [3] (setting [5]), 0.001 to 0.01 µM.
For the molecule `CNC(=O)Oc1ccc(C[C@H](NC(=O)O[C@H]2CO[C@H]3OCC[C@H]32)[C@H](O)CN(CC(C)C)S(=O)(=O)c2ccc3c(c2)OCO3)cc1` [Compound 309, (3R,3aS,6aR)-Hexahydrofuro[2,3-b]furan-3-yl (1S,2R)-3-[(1,3-benzodioxol-5-ylsulfonyl)(isobutyl)amino]-2-hydroxy-1-(4-{[(methylamino)carbonyl]oxy}benzyl)propylcarbamate], the IC50 in test [1] (setting [6]), in test [2] and in test [3] (setting [7]) was 0.001 to 0.01 µM each time.
For `CC(C)CN(C[C@@H](O)[C@H](Cc1ccc(OC(=O)NC(C)C)cc1)NC(=O)O[C@H]1CO[C@H]2OCC[C@H]21)S(=O)(=O)c1ccc2c(c1)OCO2` [Compound 310, (3R,3aS,6aR)-Hexahydrofuro[2,3-b]furan-3-yl (1S,2R)-3-[(1,3-benzodioxol-5-ylsulfonyl)(isobutyl)amino]-2-hydroxy-1-(4-{[(isopropylamino)carbonyl]oxy}benzyl)propylcarbamate], the IC50 lay within 0.01 to 0.1 µM in test [1] (setting [4]), 0.001 to 0.01 µM in test [2] and 0.001 to 0.01 µM in test [3] (setting [5]).
`CC(C)CN(C[C@@H](O)[C@H](Cc1ccc(OC(=O)N(C)C)cc1)NC(=O)O[C@H]1CO[C@H]2OCC[C@H]21)S(=O)(=O)c1ccc2c(c1)OCO2` [Compound 311, (3R,3aS,6aR)-Hexahydrofuro[2,3-b]furan-3-yl (1S,2R)-3[(1,3-benzodioxol-5-ylsulfonyl)(isobutyl)amino]-1-(4-{[(dimethylamino)carbonyl]oxy}benzyl)-2-hydroxypropylcarbamate]: the values for the IC50 in test [1] (setting [6]), in test [2] and in test [3] (setting [7]) were 0.01 to 0.1 µM, 0.001 to 0.01 µM and 0.001 to 0.01 µM, respectively.
Take `CC(C)CN(C[C@@H](O)[C@H](Cc1ccc(OC(N)=O)cc1)NC(=O)O[C@H]1CO[C@H]2OCC[C@H]21)S(=O)(=O)c1ccc2c(c1)OCO2` [Compound 312, (3R,3aS,6aR)-Hexahydrofuro[2,3-b]furan-3-yl (1S,2R)-1-{4-[(aminocarbonyl)oxy]benzyl}-3-[(1,3-benzodioxol-5-ylsulfonyl)(isobutyl)amino]-2-hydroxypropylcarbamate]: the results for the IC50 in test [1] (setting [4]), in test [2] and in test [3] (setting [5]) were 0.01 to 0.1 µM, 0.01 to 0.1 µM and 0.001 to 0.01 µM, respectively.
